Assay results published in PMC6453917, “On resin click-chemistry-mediated synthesis of novel enkephalin analogues with potent anti-nociceptive activity” (Scientific Reports, 2019).
Like-named read-outs stand apart in the source and are kept apart here. Where a SMILES comes first, the peptide text is derived from it. Bridges are numbered along the chain shown (N, C = ends). Triazole bridges read from a SMILES are 1,4-linked. [ ]: non-standard residue; d: D form. dDap(N3) = [N-]=[N+]=NC[C@@H](N)C(=O)O; dPra = C#CC[C@@H](N)C(=O)O

Tests used:
[1] = parameters: method as in PMID 25755050; details: compared with morphine; cited from earlier work
[2] = parameters: method as in PMID 25755050; details: cited from earlier work
[3] = parameters: method as in PMID 29513114; details: cited from earlier work
MOP = MOP agonist activity; read-out: IC50 in the GPI assay; cited from earlier work
DOP = details: read-out: IC50 in the MVD assay; DOP agonist activity; cited from earlier work
human KOP [4] = biological target: T1, human KOP (Homo sapiens, UniProt P41145); test: Competition radioligand binding vs 3H-diprenorphine, KOP
T1 construct: expressed in transfected cells; host or cells: CHO cells (membrane preparations)

human KOP [5] = biological target: T1, human KOP; test: 35S-GTPγS coupling assay, KOP; type: biochemical; parameters: Emax: dose or concentration left out as unconfirmed; details: for Emax: read-out: KOP EMax (in parentheses)
CD-1 male mice [6] = test: Hot plate test (thermal nociception); type: in vivo; details: i.v., 23 μmol.kg−1, mice
CD-1 male mice [7] = test: Formalin test; type: in vivo; details: s.c., 100 nmol, 15 min before formalin
From the text: The formalin test involves moderate and continuous pain generated by an injured tissue, and the measured response is the time the animals spend licking the injected paw. […] The early phase is caused predominantly by δ-fiber activation, due to a direct effect on nociceptors, while the late phase appears to be an inflammatory response, involving the unmyelinated C-fibre[44].
CD-1 male mice (Harlan, Italy) weighing 25–30 g were used in all the experiments. Before the experimental sessions, the mice were maintained in colony, housed in cages (7 mice per cage) under standard light/dark cycle (from 7:00 AM to 7:00 PM), temperature (21 ± 1 °C) and relative humidity (60 ± 10%) for at least 1 week. Food and water were available ad libitum. […]
Subcutaneous injection of a dilute solution of formalin (1%, 20 μL/paw) into the mice hind paw evoked nociceptive behavioural responses, such as licking, biting the injected paw or both, which are considered indices of nociception. […] The total time the animal spent licking or biting its paw during the early and late phase of formalin-induced nociception was recorded. […]

[8] = cited from earlier work
Plasma stability assay = type: in vitro ADME; details: human plasma, 37 °C, read-out: degradation half-life (t1/2)
Procedure: A plasma stability assay was performed by incubation of compounds in human plasma at a chosen initial concentration (i.e. 5 μM) at 37 °C. The aliquots of the incubated plasma samples were taken at T0 (at the beginning) and at T2 (after 4 hours). Collected samples were spiked with cold acetonitrile to precipitate proteins and prevent the compound from further decomposition. The assay was repeated in triplicate. Plasma aliquots were centrifuged and the supernatant collected and analyzed by LC-MS technique. The instrument responses were referenced to the zero time-point sample (as 100%) in order to determine the percentage of compound remaining after incubation at a given time point. The half-life parameter was calculated from linear regression of time course data.
Plasma and working solutions of experimental and control compounds (at appropriate concentrations) were warmed to 37 °C. 99 µL of plasma was dispensed into a pre-labeled 96-well plate (in triplicate per time-point). Then 1 µL of test compound and reference compound were transferred to wells filled by plasma. 200 µL of cold acetonitrile was added immediately into wells marked as the ‘0’ time point to precipitate proteins and prevent compound from biotransformation. Plates were incubated in a thermostatic shaker at 37 °C while shaken at 350 rpm. […] Samples were analyzed using an LC-MS technique.

[9] = BBB PAMPA assay (porcine brain lipids)

**Q.** What does the source list for Tyr-c^2,4[DLys-Phe-Dab]-CH2CH2NHCONH2?
**A.** antinociceptive response [1]: stronger antinociceptive response than that of morphine; enzymatic degradation [2]: resistant to enzymatic degradation

**Q.** For Dmt-c[D-Lys-Phe-p-CF3-Phe-Asp]NH2 [F18], which Classification ([3]; PAMPA BBB permeation class) is on record?
**A.** Low permeation (Pe<2.0→lowpermeation)

**Q.** And the “Mean (%) Mass balance” value ([3]; PAMPA)?
**A.** 95.75%

**Q.** What does the source list for “cyclo(N^ε,N^β’-carbonyl-D-Lys^2,Dap^5)-enkephalinamide”?
**A.** IC50 (MOP): 0.21 nM; IC50 (DOP): 0.65 nM

**Q.** For NC(=O)[C@H]1Cn2cc(nn2)C[C@@H](NC(=O)[C@@H](N)Cc2ccc(O)cc2)C(=O)NCC(=O)N[C@@H](Cc2ccccc2)C(=O)N1 [NOVA1, H-Tyr-c[DPra-Gly-Phe-DAza]-NH2 triazole] (H-Y[dPra]GF[dDap(N3)]-NH2; triazole 2-5), which Ki (human KOP [4]) is on record?
**A.** > 3330 nM

**Q.** And the EC50 (human KOP [5])?
**A.** > 3330 nM

**Q.** And the Emax (human KOP [5])?
**A.** 56.7 ± 5.4%

**Q.** With CC1(C)SSC(C)(C)[C@@H](NC(=O)[C@@H](N)Cc2ccc(O)cc2)C(=O)NCC(=O)N[C@@H](Cc2ccccc2)C(=O)N[C@H]1C(=O)O [DPDPE, (D-Pen^2,D-Pen^5)-Enkephalin] as the compound, how does the “antinociceptive effect (nociceptive threshold), hot plate” value (CD-1 male mice [6]) read?
**A.** ineffective

**Q.** And the “antinociceptive effect, formalin test, early and late phase” value (CD-1 male mice [7])?
**A.** slight but not significant antinociceptive effect

**Q.** And the “antinociception after i.c.v. administration” value ([8]; i.c.v.)?
**A.** slightly active until 45 min

**Q.** And the “antinociception after s.c. administration” value ([8]; s.c.)?
**A.** completely inactive

**Q.** Which results are given for NC(=O)[C@H]1Cc2cn(nn2)C[C@@H](NC(=O)[C@@H](N)Cc2ccc(O)cc2)C(=O)NCC(=O)N[C@@H](Cc2ccccc2)C(=O)N1 [NOVA2, H-Tyr-c[DAza-Gly-Phe-DPra]-NH2 triazole] (H-Y[dDap(N3)]GF[dPra]-NH2; triazole 2-5)?
**A.** Ki (human KOP [4]): > 3330 nM; EC50 (human KOP [5]): > 3330 nM; Emax (human KOP [5]): 68.3 ± 5%; half-life at 5 μM (Plasma stability assay): > 4 h; Mean (%) Mass balance ([9]; PAMPA): 102.22%; Pe value relative to negative control theophylline ([9]; PAMPA): two-fold higher; Classification ([9]; PAMPA BBB permeation class): Low permeation (Pe<2.0→lowpermeation)
